Data taken from patent US20060063786A1 (priority 2002, published 2006).
Where two headings read alike, the source gives them in different places.

System: Pyricularia oryzae
Format: in vivo
Details: individual active compound, protective, inoculated next day, rated after 6 days

Compound | Efficacy in % of the untreated control (1 ppm in the spray liquor) | Efficacy in % of the untreated control (4 ppm in the spray liquor) | Efficacy in % of the untreated control (0.25 ppm in the spray liquor)
CC1CCN(c2c(-c3c(F)cccc3Cl)c(Cl)nc3ncnn23)CC1 [A] | 0 % of the untreated control | 28 % of the untreated control | –
C[C@H](Nc1c(-c2c(F)cc(F)cc2F)c(Cl)nc2ncnn12)C(F)(F)F [B] | 28 % of the untreated control | 52 % of the untreated control | –
CNC(=O)/C(=N/OC)c1ccccc1CO/N=C(C)/C(=N/OC)C(/C)=N/OC [I (orysastrobin), 2-[2-(2,3-bismethoxyimino-1-methylbutylideneamino-oxymethyl)phenyl]-2-methoxyimino-N-methylacetamide] | – | 28 % of the untreated control | 0 % of the untreated control
CC1CCN(c2c(-c3c(F)cc(F)cc3F)c(Cl)nc3ncnn23)CC1 [II, 5-chloro-7-(4-methylpiperidin-1-yl)-6-(2,4,6-trifluorophenyl)-[1,2,4]triazolo[1,5-a]pyrimidine] | 3 % of the untreated control | 52 % of the untreated control | –
